Assay results from patent US9491944B2, “Pesticidal compositions and related methods” (DOW AGROSCIENCES LLC, priority 2013, dated 2016).

How the values were obtained:
[1] = system: Green Peach Aphid (Myzus persicae) (GPA) (MYZUPE); assay: Bioassay for Green Peach Aphid (GPA) foliar spray on cabbage seedlings; format: in vivo; conditions: 72 h, 200 ppm foliar spray on cabbage seedlings, graded after three days, Abbott corrected % control, read-out: GPA % Control (or Mortality) rating
Protocol: Bioassay for Green Peach Aphid (Myzus persicae) (GPA) (MYZUPE)
Cabbage seedlings grown in 3-inch pots, with 2-3 small (3-5 cm) true leaves, were used as test substrate. The seedlings were infested with 20-50 GPA (wingless adult and nymph stages) one day prior to chemical application. Four pots with individual seedlings were used for each treatment. Test compounds (2 mg) were dissolved in 2 mL of acetone/methanol (1:1) solvent, forming stock solutions of 1000 ppm test compound. The stock solutions were diluted 5× with 0.025% Tween 20 in H2O to obtain the solution at 200 ppm test compound. A hand-held aspirator-type sprayer was used for spraying a solution to both sides of cabbage leaves until runoff Reference plants (solvent check) were sprayed with the diluent only containing 20% by volume of acetone/methanol (1:1) solvent. Treated plants were held in a holding room for three days at approximately 25° C. and ambient relative humidity (RH) prior to grading. Evaluation was conducted by counting the number of live aphids per plant under a microscope. Percent control was measured by using Abbott's correction formula (W. S. Abbott, “A Method of Computing the Effectiveness of an Insecticide,” J. Econ. Entomol. 18 (1925), pp. 265-267) as follows Corrected % Control=100*(X−Y)/X
X=No. of live aphids on solvent check plants and
Y=No. of live aphids on treated plants.
Biological Data for Green Peach Aphid (GPA) (MYZUPE) and Sweetpotato Whitefly-crawler (WF) (BEMITA)” (see Table section).
(§1) The mortality efficiency of the pesticidal compounds against GPA and WF insects was determined after treatment.

[2] = system: Sweetpotato Whitefly-Crawler (WF) (Bemisia tabaci) (BEMITA); assay: Insecticidal test for Sweetpotato Whitefly-crawler (WF) in foliar spray assay on cotton plants; format: in vivo; conditions: 216 h, 200 ppm foliar spray on cotton plants, graded after 9 days, Abbott corrected % control, read-out: WF % Control (or Mortality) rating
Protocol: Insecticidal Test for Sweetpotato Whitefly-Crawler (WF) (Bemisia tabaci) (BEMITA) in Foliar Spray Assay
Cotton plants (Gossypium hirsutum) grown in 3-inch pots, with 1 small (4-5 cm) true leaves, were used as test substrate. The plants were infested with 200-400 whitefly eggs 4-5 days prior to chemical application. Four pots with individual plants were used for each treatment. Test compounds (2 mg) were dissolved in 1 mL of acetone solvent, forming stock solutions of 2000 ppm test compound. The stock solutions were diluted 10× with 0.025% Tween 20 in H2O (diluents) to obtain the solution at 200 ppm test compound. A hand-held aspirator-type sprayer was used for spraying a solution to both sides of cotton leaves until runoff. Reference plants (solvent check) were sprayed with the diluent only containing 10% by volume of acetone solvent. Treated plants were held in a holding room for 9 days at approximately 25° C. and ambient relative humidity (RH) prior to grading. Evaluation was conducted by counting the number of live 3-4 nymph stage per plant under a microscope. Percent control was measured by using Abbott's correction formula (W. S. Abbott, “A Method of Computing the Effectiveness of an Insecticide,” J. Econ. Entomol. 18 (1925), pp. 265-267) as follows. Corrected % Control=100*(X−Y)/X
X=No. of live nymphs on solvent check plants and
Y=No. of live nymphs on treated plants.
Biological Data for Green Peach Aphid (MYZUPE) and Sweetpotato Whitefly-crawler (WF) (BEMITA)” (see Table section).
as §1

Structure (SMILES)	mortality at 200 ppm [1]	mortality at 200 ppm [2]
Clc1ccccc1-c1cn(-c2cccnc2)nn1 [Compound F1]	0 to 80%	0 to 80%
FC(F)(F)c1ccc(-c2cn(-c3cccnc3)nn2)cn1 [Compound F2, 5-[1-(Pyridin-3-yl)-1H-1,2,3-triazol-4-yl]-2-(trifluoromethyl)pyridine]	80 to 100%	0 to 80%
CSc1cccc(-c2cn(-c3cccnc3)nn2)c1 [Compound F3]	80 to 100%	< 0%
Cc1ccc(-c2cn(-c3cccnc3)nn2)nc1 [Compound F4, 5-Methyl-2-[1-(pyridin-3-yl)-1H-1,2,3-triazol-4-yl]pyridine]	80 to 100%	80 to 100%
COc1cccc(-c2cn(-c3cccnc3)nn2)n1 [Compound F5, 2-Methoxy-6-[1-(pyridin-3-yl)-1H-1,2,3-triazol-4-yl]pyridine]	80 to 100%	0 to 80%
FC(F)(F)Oc1cccc(-c2cn(-c3cccnc3)nn2)c1 [Compound F6, 3-(4-(3-(trifluoromethoxy)phenyl)-1H-1,2,3-triazol-1-yl)pyridine]	80 to 100%	0 to 80%
FC(F)(F)c1cccc(-c2cn(-c3cccnc3)nn2)n1 [Compound F7, 2-[1-(pyridin-3-yl)-1H-1,2,3-triazol-4-yl]-6-(trifluoromethyl) pyridine]	80 to 100%	80 to 100%
FC(F)(F)c1ccc(-c2cn(-c3cccnc3)nn2)nc1 [Compound F8, 2-[1-(Pyridin-3-yl)-1H-1,2,3-triazol-4-yl]-5-(trifluoromethyl)pyridine]	80 to 100%	80 to 100%
Brc1cccc(-c2cn(-c3cccnc3)nn2)n1 [Compound F9, 2-Bromo-6-[1-(pyridin-3-yl)-1H-1,2,3-triazol-4-yl]pyridine]	80 to 100%	0 to 80%
Clc1cccc(-c2cn(-c3cccnc3)nn2)n1 [Compound F10, 2-Chloro-6-[1-(pyridin-3-yl)-1H-1,2,3-triazol-4-yl]pyridine]	80 to 100%	0 to 80%
Clc1cccc(-c2cn(-c3cccnc3)nn2)c1 [Compound F11]	0 to 80%	< 0%
Cc1cccc(-c2cn(-c3cccnc3)nn2)n1 [Compound F12, 2-methyl-6-(1-(pyridin-3-yl)-1H-1,2,3-triazol-4-yl)pyridine]	80 to 100%	80 to 100%
FC(F)(F)c1cccc(-c2cn(-c3cccnc3)nn2)c1 [Compound F13]	80 to 100%	< 0%
